In patent US11549947B2, “Multiplexed detection with isotope-coded reporters” (Massachusetts Institute of Technology, priority 2011, dated 2023):

B1: serum CEA: blood biomarker carcinoembryonic antigen secreted by LS174T cells (protein, UniProt P06731 35-685, looked up)
Cell adhesion molecule CEACAM5: KLTIESTPFNVAEGKEVLLLVHNLPQHLFGYSWYKGERVDGNRQIIGYVIGTQQATPGPAYSGREIIYPNASLLIQNIIQNDTGFYTLHVIKSDLVNEEATGQFRVYPELPKPSISSNNSKPVEDKDAVAFTCEPETQDATYLWWVNNQSLPVSPRLQLSNGNRTLTLFNVTRNDTASYKCETQNPVSARRSDSVILNVLYGPDAPTISPLNTSYRSGENLNLSCHAASNPPAQYSWFVNGTFQQSTQELFIPNITVNNSGSYTCQAHNSDTGLNRTTVTTITVYAEPPKPFITSNNSNPVEDEDAVALTCEPEIQNTTYLWWVNNQSLPVSPRLQLSNDNRTLTLLSVTRNDVGPYECGIQNELSVDHSDPVILNVLYGPDDPTISPSYTYYRPGVNLSLSCHAASNPPAQYSWLIDGNIQQHTQELFISNITEKNSGLYTCQANNSASGHSRTTVKTITVSAELPKPSISSNNSKPVEDKDAVAFTCEPEAQNTTYLWWVNGQSLPVSPRLQLSNGNRTLTLFNVTRNDARAYVCGIQNSVSANRSDPVTLDVLYGPDTPIISPPDSSYLSGANLNLSCHSASNPSPQYSWRINGIPQQHTQVLFIAKITPNNNGTYACFVSNLATGRNNSIVKSITVSASGTSPGLSA

Key:
[1] = system: hepatic fibrosis and resolution in DDC-treated mice; assay: iCORE LC MS/MS analysis of urinary reporters after i.v. NW cocktail, DDC liver fibrosis model; assay type: in vivo, FVB/NJ mice; conditions: for individual iCORE peak intensity (DDC over control) relative to pretreatment: DDC-treated mice, NWs administered at 0, 3, 7 and 11 weeks, urine, n=10
Experimental: (§1) Mice were intravenously infused with 200 μl of PBS containing equimolar NW cocktails (5 μM per peptide) with EDTA-free protease inhibitor tablets (Roche) to isolate MMP activity. Mice were placed over 96-well plates surrounded by cylindrical sleeves for urine collection. To prevent further reporter degradation, voided samples were spiked with EDTA+ complete protease inhibitors (Roche) immediately after collection. To quantify urinary fluorescence, 2 μL of each sample was incubated with magnetic beads (Dynal) coated with α-FITC antibodies (Genetex) in 50 μl binding buffer ([…], 0.01% CHAPS) for 1 hr at 37° C., washed twice with 100 mM NH4OAc, and eluted twice with 15 μl of 5% acetic acid. Samples were neutralized with 2 M Tris and quantified by microplate fluorimetry. For iCORE analysis, samples were irradiated with UV for 30 min. before TCA precipitation (20% final volume) to remove proteins. Soluble fractions were applied to C18 reverse phase columns (Nest Group) and eluted via step gradients of 20% ACN increments in 0.1% formic acid. 60% ACN fractions containing Glu-fib peptides were collected and dried by vacuum centrifuge.
Peptide samples were reconstituted in 5% ACN, 0.1% formic acid and analyzed at MIT or the Taplin MS facility (Harvard Medical School). At MIT, peptides were captured and eluted from a C18 nanoflow HPLC column (75 μm internal diameter Magic C18 AQ, Michrom BioResources, Inc.) at a flow rate of 300 nL/min using water-acetonitrile solvent system with 0.1% formic acid. ESI mass spectrometry was carried out on a QSTAR Elite QTOF mass spectrometer (AB Sciex). At Harvard, samples are reconstituted in 2.5% ACN, 0.1% formic acid. Samples are injected using a Famos autosampler (LC Packings) into an Agilent 1100 HPLC prior to mass analysis on a LTQ-Orbitrap (Thermo Electron). To account for discrepancies in urine volumes and concentration, peak intensities of individual reporters were scaled relative to its respective total iCORE ion current before normalization against control samples to account for technical and age-related variations.
Pearson's correlation coefficients between different protease profiles were calculated with MatLAB. ANOVA analyses were calculated with GraphPad 5.0 (Prism). For ROC analysis, risk score functions were first estimated by logistic regression on individual biomarkers followed by ROC curve analyses of single or biomarker combinations (SigmaPlot).
Thus, to monitor the transitions between fibrosing and resolving disease, NWs were administered at 0, 3, 7, and 11 weeks into DDC-treated and age-matched control animals followed by iCORE MS/MS analysis.
The diagnostic performance of these biomarkers was determined by performing receiver operating characteristic (ROC) analyses for individual as well as biomarker combinations. ROC curves characterize the sensitivity and specificity of a biomarker as a function of the discrimination threshold by returning the area under the curve (AUC) as a performance metric with a baseline AUC of 0.5 representing a random biomarker classifier (dashed line, FIG. 11g,h).

LS174T xenograft tumors [2] = assay: iCORE MS/MS analysis of urinary reporters after i.v. NW library, colorectal tumor xenograft model; assay type: in vivo, athymic nude mice; conditions: LS 174T tumor vs control, day 10; n=16 (8 ctrl, 8 tumor)
Experimental: as §1, with “60% ACN fractions containing Glu-fib peptides were collected and dried by vacuum centrifuge.” left out
Peptide samples were reconstituted in 5% ACN, 0.1% formic acid and analyzed at MIT or the Taplin MS facility (Harvard Medical School). […]
Pearson's correlation coefficients between different protease profiles were calculated with MatLAB. ANOVA analyses were calculated with GraphPad 5.0 (Prism). […]

liver collagen = conditions: mouse, in vivo
Experimental: In vivo imaging. […] FVB/NJ mice (Jackson Labs) were fed with 0.1% w/w DDC (Sigma) rodent chow for three weeks (Research Diets). Fibrotic and age control animals were i.v. infused with VivoTag-680 labeled reagents and visualized by IVIS imaging (Xenogen).
For in situ zymography, fibrotic sections were covered with 90 μl solution of 0.5% w/v low melt agarose (Sigma) in MMP activation buffer (50 mM Tris, 150 NaCl, 5 mM CaCl2, 0.025% Brij 35, pH 7.5) with 10 μl of DQ-gelation (1 mg/ml, Invitrogen) and Hoechst dye at 37° C. Slides were solidified at 4° C. and then incubated at room temperature overnight to promote gelation proteolysis by tissue proteases. To quantify hepatic collagen, tissue from the right and left lobes (250-300 mg) were hydrolyzed in 5 ml of 6 N HCl at 110° C. for 16 hours followed by hydroxyproline quantification as previously described.^43 To quantify CEA, blood was collected from tumor animals into Capiject microtubes (Terumo) to isolate serum before ELISA analysis (Calbiotech). For immunofluorescence analysis, equimolar NW cocktails (5 μM/peptide) were administered in Fibrotic FVB/NJ or tumor bearing Nude mice. After perfusion, livers or tumors were fixed in 4% PFA, froze for sectioning, and stained for F4/80 (AbD Serotec), MMP-9 (R&D Biosystems), CD31 (Santa Cruz Biotechnologies) and/or FITC (Genetex) before analyzed by fluorescence microscopy (Nikon Eclipse Ti). […]

[3] = set-up: species or system FVB/NJ mice; conditions: mouse, in vivo, iv
Excerpt: Using this assay, increases in sample fluorescence were observed upon proteolytic cleavage of the tethered fluorescent peptides resulting from abrogation of homoquenching between adjacent fluorophores. Initial reaction velocities were extracted for each protease-substrate combination and compiled for comparative analysis (FIG. 10a,b). FIG. 10 illustrates selecting protease-sensitive substrates for NW-chaperoned urinary trafficking. Kinetics of peptide-NW cleavage monitored by fluorimetry are shown in (a). Specific protease-substrate combinations led to rapid activation. […] IVIS in vivo imaging of DDC treated and control animals following intravenous injection of VivoTag-680 labeled Glu-fib peptides, (d) peptide-free NWs, or (e) peptide-conjugated NWs.

LS174T xenograft tumors [4] = assay: Serum CEA by ELISA in tumor animals; assay type: in vivo, athymic nude mice
Experimental: To quantify hepatic collagen, tissue from the right and left lobes (250-300 mg) were hydrolyzed in 5 ml of 6 N HCl at 110° C. for 16 hours followed by hydroxyproline quantification as previously described.^43 To quantify CEA, blood was collected from tumor animals into Capiject microtubes (Terumo) to isolate serum before ELISA analysis (Calbiotech).
Here, it was investigated whether panels of synthetic urinary biomarkers could be readily adapted to allow earlier and more accurate detection of cancer compared with single clinical blood biomarkers, e.g., because nanoparticles can be passively targeted to tumors to sample proteases through fenestrated angiogenic tumor vessels.^16. In order to explore this concept, athymic nude mice were used bearing LS174T xenograft tumors, a human colorectal cancer (CRC) cell line^38 that secretes the blood biomarker carcinoembryonic antigen (CEA) as a model system (FIG. 22). […] Following implantation, tumor engraftment was monitored by sampling serum every 3 days and analyzing for CEA by ELISA (FIG. 23b,c). […] Tumors permitted to grow further were readily detected by CEA analysis (day 13 and 16), representing a limit of detection of ˜330 mm3 (d ˜8.6 mm) (**P<0.01, Two way ANOVA, n=5). […] To determine the full diagnostic potential of multiplexed analysis, individual biomarkers were quantified by iCORE MS/MS.

| Molecule | individual iCORE peak intensity (DDC over control) relative to pretreatment [1] | also measured |
| --- | --- | --- |
| e^+2G^+6Vndnee^+1GFfsAr-X-K(FAM)GGLVPRGSGC-NW [Biomarker G2] | did not deviate from initial pretreatment activities |  |
| e^+3GVndneeG^+6FfsAr-X-K(FAM)GGPLGVRGKC-NW [Biomarker G7] | elevating sharply at week 3 followed by a rapid reversal at week 7 |  |
| eG^+6Vndnee^+2GFfs^+1Ar-X-K(FAM)GGPWGIWGQGC-NW [Biomarker G4] | strongly increased relative to pretreatment baselines |  |
| e^+1G^+6Vndnee^+2GFfsAr-X-K(FAM)GGPVGLIGC-NW [Biomarker G3] | strongly increased relative to pretreatment baselines |  |
| e^+3G^+6VndneeGFfsAr-X-K(FAM)GGPQGIWGQC-NW [Biomarker G1] | did not deviate from initial pretreatment activities | ROC area under the curve (AUC), tumor biomarkers (LS174T xenograft tumors [2]): 0.78; ROC area under the curve (AUC), resolving biomarkers ([1]; resolving time frame of 7-11 weeks, baseline AUC 0.5): 0.73 |
| eGVndnee^+3G^+6FfsAr-X-K(FAM)GGf(Pip)KSGGGC-NW [Biomarker G10] | did not deviate from initial pretreatment activities |  |
| 3,5-diethoxycarbonyl-1,4-dihydrocollidine [DDC] |  | drop in liver collagen (liver collagen): ~30% |
| e^+1GVndnee^+2G^+6FfsAr-X-K(FAM)GGfPRSGGGC-NW [Biomarker G9] | did not deviate from initial pretreatment activities |  |
| eG^+5VndneeGFfs^+4Ar-X-K(FAM)GGPVPLSLVMC-NW [Biomarker G5] | significantly decreasing at week 3 | ROC area under the curve (AUC), fibrosing biomarkers ([1]; fibrosing window of 0-3 weeks, baseline AUC 0.5): 0.96 |
| EGVNDNEEGFFSAR [Glu-fib, prototypic urinary marker peptide] |  | liver homing [3]: undetectable; urinary filtration / urinary fluorescence [3]: efficiently filtered into urine |
| e^+2GVndneeG^+6Ffs^+1Ar-X-K(FAM)GGf(Pip)RSGGGC-NW [Biomarker G8] | did not deviate from initial pretreatment activities |  |
| e^+3G^+1Vndnee^+1GFfs^+4Ar-X-K(FAM)GGPLGLRSWC-NW [Biomarker G6] | significantly decreasing at week 3 |  |
| B1 |  | ROC area under the curve (AUC), serum CEA (LS174T xenograft tumors [4]; day 10): 0.61; limit of detection (tumor burden) by CEA analysis (LS174T xenograft tumors [4]; day 13 and 16): ~330 mm3 |
